From ChEMBL document CHEMBL2424607, “Synthesis, characterization, and computational studies on phthalic anhydride-based benzylidene-hydrazide derivatives as novel, potential anti-inflammatory agents” (2013) come the findings set out here.

Holding throughout (type): functional
The species entered for test [1] is Mus musculus. The test is described as follows: Analgesic activity in Swiss albino mouse assessed as duration of thermal-stimulus induced tail flick latency after 60 mins by tail immersion method (reference value: 3.01 +/- 0.04 seconds). A general note: Thermal pain tests record how soon the animal reacts.
Test [2] relates to Rattus norvegicus. As to the kind of experiment: Antiinflammatory activity against carrageenan-induced paw edema rat model assessed as inhibition of hind paw swelling administered 1 hr before carrageenan challenge measured after 1 hr by plethysmometer relative to control. On the technique in general: Carrageenan injected into the paw causes an acute inflammation.
The species entered for test [3] is Mus musculus. As to the kind of experiment: Analgesic activity in Swiss albino mouse assessed as duration of thermal-stimulus induced tail flick latency after 30 mins by tail immersion method (reference value: 2.13 +/- 0.03 seconds).
Test [4] relates to Rattus norvegicus. The test is described as follows: Antiinflammatory activity against carrageenan-induced paw edema rat model assessed as inhibition of hind paw swelling administered 1 hr before carrageenan challenge measured after 3 hrs by plethysmometer relative to control.
Test [5] relates to Rattus norvegicus. The test is described as follows: Antiinflammatory activity against carrageenan-induced paw edema rat model assessed as inhibition of hind paw swelling administered 1 hr before carrageenan challenge measured after 2 hrs by plethysmometer relative to control.
The species named for test [6] is Mus musculus. As to the kind of experiment: Analgesic activity in Swiss albino mouse assessed as duration of thermal-stimulus induced tail flick latency after 90 mins by tail immersion method (reference value: 3.87 +/- 0.10 seconds).
The test system of test [7] is Mus musculus. As to the kind of experiment: Analgesic activity in Swiss albino mouse assessed as duration of thermal-stimulus induced tail flick latency at 10 mg/kg after 60 mins by tail immersion method (reference value: 3.01 +/- 0.04 seconds).
The subject of test [8] is Mus musculus. As to the kind of experiment: Analgesic activity in Swiss albino mouse assessed as duration of thermal-stimulus induced tail flick latency at 10 mg/kg after 90 mins by tail immersion method (reference value: 3.87 +/- 0.10 seconds).
For test [9], the system named is Rattus norvegicus. The test is described as follows: Antiinflammatory activity against carrageenan-induced paw edema rat model assessed as inhibition of hind paw swelling at 10 mg/kg administered 1 hr before carrageenan challenge measured after 2 hrs by plethysmometer relative to control.
Test [10] relates to Rattus norvegicus. As to the kind of experiment: Antiinflammatory activity against carrageenan-induced paw edema rat model assessed as inhibition of hind paw swelling at 10 mg/kg administered 1 hr before carrageenan challenge measured after 3 hrs by plethysmometer relative to control.
Test [11] has as its system Mus musculus. The test is described as follows: Analgesic activity in Swiss albino mouse assessed as duration of thermal-stimulus induced tail flick latency at 10 mg/kg after 30 mins by tail immersion method (reference value: 2.13 +/- 0.03 seconds).
The test system of test [12] is Rattus norvegicus. The test is described as follows: Antiinflammatory activity against carrageenan-induced paw edema rat model assessed as inhibition of hind paw swelling at 10 mg/kg administered 1 hr before carrageenan challenge measured after 1 hr by plethysmometer relative to control.

Consider `O=C(CN1C(=O)c2ccccc2C1=O)N/N=C/c1ccccc1[N+](=O)[O-]`, for which the Time is reported as 6.29 s in the test listed under Mus musculus [1], 5.35 s in the test listed under Mus musculus [3] and 6.88 s in the test listed under Mus musculus [6]. The “inhibition (INH)” value is 30.3% in the test with Rattus norvegicus [2], 57.3% in the test with Rattus norvegicus [4] and 49.2% with Rattus norvegicus [5].

On to `O=C(CN1C(=O)c2ccccc2C1=O)N/N=C/c1ccc(Cl)cc1`, for which the Time stood at 7.13 s in the test listed under Mus musculus [1], 5.61 s in the test filed under Mus musculus [3] and 8.91 s in the test filed under Mus musculus [6]. The entries for the “inhibition (INH)” value in the test with Rattus norvegicus [2], in the test with Rattus norvegicus [4] and in the test with Rattus norvegicus [5] were 26.7%, 58.6% and 47.8%, respectively.

For the compound `COc1cccc(/C=N/NC(=O)CN2C(=O)c3ccccc3C2=O)c1`, the figures for the Time in the test listed under Mus musculus [1], in the test filed under Mus musculus [3] and in the test filed under Mus musculus [6] were 3.94 s, 3.21 s and 4.92 s, respectively. In addition, the “inhibition (INH)” value in the test with Rattus norvegicus [2] is recorded as 28.5%; with Rattus norvegicus [4], 61.4%; with Rattus norvegicus [5], 49.2%.

Consider `O=C(CN1C(=O)c2ccccc2C1=O)N/N=C/c1ccc(O)cc1`, for which the values for the Time in the test filed under Mus musculus [1], in the test listed under Mus musculus [3] and in the test listed under Mus musculus [6] were 3.83 s, 3.42 s and 4.12 s, respectively. Besides, the “inhibition (INH)” value in the test on Rattus norvegicus [2] came to 23.2%; with Rattus norvegicus [4] it was 50.6%; in the test with Rattus norvegicus [5] it was 43.4%.

For `Cc1ccc(/C=N/NC(=O)CN2C(=O)c3ccccc3C2=O)cc1`, the Time was 3.86 s in the test listed under Mus musculus [1], 3.32 s in the test filed under Mus musculus [3] and 4.5 s in the test listed under Mus musculus [6]. Moreover, the entries for the “inhibition (INH)” value with Rattus norvegicus [2], in the test on Rattus norvegicus [4] and in the test with Rattus norvegicus [5] were 17.8%, 25.3% and 24.6%, respectively.

Take `COc1cc(/C=N/NC(=O)CN2C(=O)c3ccccc3C2=O)ccc1O`: the Time in the test listed under Mus musculus [1] turned out to be 6.22 s; in the test filed under Mus musculus [3] it was 4.53 s; in the test filed under Mus musculus [6], 9.09 s. The “inhibition (INH)” value in the test with Rattus norvegicus [2] is 32.1%; in the test on Rattus norvegicus [4] it was 64%; in the test on Rattus norvegicus [5], 53.6%.

Regarding `COc1cc(/C=N/NC(=O)CN2C(=O)c3ccccc3C2=O)cc(OC)c1OC`, the Time was determined as 4.04 s in the test filed under Mus musculus [1], 3.83 s in the test filed under Mus musculus [3] and 4.21 s in the test listed under Mus musculus [6]. For the same compound, the “inhibition (INH)” value with Rattus norvegicus [2] is on record as 26.7%; in the test on Rattus norvegicus [4], 49.4%; with Rattus norvegicus [5] it was 40.5%.

Consider `O=C(CN1C(=O)c2ccccc2C1=O)N/N=C/c1ccccc1`, for which the Time is on record as 3.22 s in the test listed under Mus musculus [1], 2.83 s in the test listed under Mus musculus [3] and 3.89 s in the test filed under Mus musculus [6]. The “inhibition (INH)” value turned out to be 14.2% with Rattus norvegicus [2], 17.3% in the test with Rattus norvegicus [4] and 15.9% in the test with Rattus norvegicus [5].

`O=C(CN1C(=O)c2ccccc2C1=O)N/N=C/c1ccc([N+](=O)[O-])cc1`: the results for the Time in the test listed under Mus musculus [1], in the test listed under Mus musculus [3] and in the test listed under Mus musculus [6] were 6.45 s, 5.39 s and 6.83 s, respectively. The “inhibition (INH)” value turned out to be 19.6% in the test on Rattus norvegicus [2], 54.6% in the test on Rattus norvegicus [4] and 43.4% in the test with Rattus norvegicus [5].

In the case of `O=C([O-])Cc1ccccc1Nc1c(Cl)cccc1Cl.[Na+]` [DICLOFENAC SODIUM], the results for the Time in the test with Mus musculus [7], in the test with Mus musculus [8] and in the test on Mus musculus [11] were 5.06 s, 10.93 s and 3.06 s, respectively. For the same compound, the results for the inhibition in vivo at 10 mg/kg in the test with Rattus norvegicus [9], with Rattus norvegicus [10] and with Rattus norvegicus [12] were 60.8%, 68% and 39.8%, respectively.

What is called inhibition in vivo is the change of the read-out against control, counted positive when it falls.
